The assay has as its system HCT-116 cells. As to the kind of experiment: In vitro cytotoxicity assay. It counts as cell-based. Particulars: Homo sapiens, HCT-116, 72 h, read-out: IC50, HCT-116 cell proliferation.

Structures are written as SMILES.

From publication PMC10294771 (Journal of Enzyme Inhibition and Medicinal Chemistry, 2023) come the findings set out here.

Turning to `C[C@H](O)C(=O)N1CCC(CCn2c(Sc3cc4c(cc3Br)OCO4)nc3c(N)ncnc32)CC1` [MPC-3100, (2S)-1-[4-(2-{6-amino-8-[(6-bromo-1,3-benzodioxol-5-yl)sulfanyl]-9H-purin-9-yl}ethyl)piperidin-1-yl]-2-hydroxypropan-1-one], the IC50 worked out at 780 nM.
